Source: patent publication US20210292347A1, “DIHETEROCYCLIC TRIAZINONE NUCLEOSIDE ANALOGS AND THEIR USE FOR MEDICATION” (priority 2020, published 2021)

System: mice sarcoma S180
Assay: Growth inhibition of S180 sarcoma in mice
Type: in vivo, Kunming healthy mice
Conditions: for in-vivo anti-tumor efficacy, statistical significance (in words): S180 sarcoma in mice, doses and routes of Table 3
[1] = Mus musculus, S-180, mice, ip, read-out: Inhibition rate (%) S180 sarcoma
[2] = Mus musculus, S-180, mice, iv, read-out: Inhibition rate (%) S180 sarcoma

For CN(C)CCC(=O)Nc1nn(C(N)=O)c2c(=O)n(C3CSC(CO)O3)nnc12 (centres unmarked) [Example 99, 7-(3-(dimethylamino)propanamido)-3-(2-(hydroxymethyl)-1,3-oxathiolan-5-yl)-4-oxo-3H-pyrazolo[4,3-d][1,2,3]triazine-5(4H)-carboxamide], which inhibition in vivo at 150 mg/kg [1] is on record?
The inhibition in vivo at 150 mg/kg was < 20%.

How did the inhibition in vivo at 100 mg/kg [1] turn out when CCOP(=O)(OCC)C(Nc1nn(CO)c2c(=O)n(C3CCC(CO)O3)nnc12)C(=O)O (centres unmarked) [Example 81, 2-(diethoxyphosphoryl)-2-((5-(hydroxymethyl)-3-(5-(hydroxymethyl)tetrahydrofuran-2-yl)-4-oxo-4,5-dihydro-3H-pyrazolo[4,3-d][1,2,3]triazin-7-yl)amino)acetic acid] was run?
The inhibition in vivo at 100 mg/kg was < 40%.

And the “in-vivo anti-tumor efficacy, statistical significance (in words)” value?
Its value is “statistically significant”.

How did the inhibition in vivo at 100 mg/kg [1] turn out when CCCn1nnc2c(=O)n(C3CCC(COC(C(=O)O)P(=O)(NC(C)C)NC(C)C)O3)nnc21 (centres unmarked) [Example 154, 2-(bis(isopropylamino)phosphoryl)-2-((5-(7-oxo-3-propyl-3H-[1,2,3]triazolo[4,5-d][1,2,3]triazin-6(7H)-yl)tetrahydrofuran-2-yl)methoxy)acetic acid] was run?
Its inhibition in vivo at 100 mg/kg is < 20%.

What does the source list for O=c1c2c(nnn1C1OC(CO)C(O)C1O)c([N+](=O)[O-])nn2CO (centres unmarked) [Example 36, 3-(3,4-dihydroxy-5-(hydroxymethyl)tetrahydrofuran-2-yl)-5-(hydroxymethyl)-7-nitro-3H-pyrazolo [4,3-d][1,2,3]triazin-4(5H)-one]?
inhibition in vivo at 200 mg/kg [1]: < 40%; in-vivo anti-tumor efficacy, statistical significance (in words): statistically significant

How did the inhibition in vivo at 12.5 mg/kg [2] turn out when CCCc1nn(C)c2c(=O)n(C3OC(COC(C(=O)O)P(NC(C)C)OCC#N)C(O)C3O)nnc12 (centres unmarked) [Example 120, 2-((cyanomethoxy)(isopropylamino)phosphino)-2-((3,4-dihydroxy-5-(5-methyl-4-oxo-7-propyl-4,5-dihydro-3H-pyrazolo[4,3-d][1,2,3]triazin-3-yl)tetrahydrofuran-2-yl)methoxy)acetic acid] was run?
The inhibition in vivo at 12.5 mg/kg was < 40%.

What about the “in-vivo anti-tumor efficacy, statistical significance (in words)” value of the same compound?
The value was “statistically significant”.

How did the inhibition in vivo at 100 mg/kg [1] turn out when CCCc1nn(CO)c2c(=O)n(C3OC(CO)C(O)C3O)nnc12 (centres unmarked) [Example 31, 3-(3,4-dihydroxy-5-(hydroxymethyl)tetrahydrofuran-2-yl)-5-(hydroxymethyl)-7-propyl-3H-pyrazolo[4,3-d][1,2,3]triazin-4(5H)-one] was run?
Its inhibition in vivo at 100 mg/kg is < 40%.

What about the “in-vivo anti-tumor efficacy, statistical significance (in words)” value of the same compound?
Its value is “statistically significant”.

How did the inhibition in vivo at 100 mg/kg [1] turn out when CCCc1nn(CC(N)=O)c2c(=O)n(C3OC(CO)C(O)C3O)nnc12 (centres unmarked) [Example 49, 2-(3-(3,4-dihydroxy-5-(hydroxymethyl)tetrahydrofuran-2-yl)-4-oxo-7-propyl-3H-pyrazolo [4,3-d][1,2,3]triazin-5(4H)-yl)acetamide] was run?
The inhibition in vivo at 100 mg/kg was < 40%.

And the “in-vivo anti-tumor efficacy, statistical significance (in words)” value?
Its value is “statistically significant”.

Which results are given for NC(=O)Cn1nc([N+](=O)[O-])c2nnn(C3OC(CO)C(O)C3O)c(=O)c21 (centres unmarked) [Example 54, 2-(3-(3,4-dihydroxy-5-(hydroxymethyl)tetrahydrofuran-2-yl)-7-nitro-4-oxo-3H-pyrazolo [4,3-d][1,2,3]triazin-5(4H)-yl)acetamide]?
inhibition in vivo at 150 mg/kg [1]: < 40%; in-vivo anti-tumor efficacy, statistical significance (in words): statistically significant

Which inhibition in vivo at 50 mg/kg [2] does the source give for CCCc1nn(C)c2c(=O)n(C3OC(COC(C(=O)O)P(=O)(NC(C)C)NC(C)C)C(O)C3O)nnc12 (centres unmarked) [Example 106, 2-(bis(isopropylamino)phosphoryl)-2-((3,4-dihydroxy-5-(5-methyl-4-oxo-7-propyl-4,5-dihydro-3H-pyrazolo [4,3-d][1,2,3]triazin-3-yl)tetrahydrofuran-2-yl)methoxy)acetic acid] here?
The inhibition in vivo at 50 mg/kg was < 20%.

Which inhibition in vivo at 50 mg/kg [2] does the source give for CCCc1nn(C)c2c(=O)n(COC(CO)CO)nnc12 [Example 126, 3-(((1,3-dihydroxypropan-2-yl)oxy)methyl)-5-methyl-7-propyl-3H-pyrazolo[4,3-d][1,2,3]triazin-4(5H)-one] here?
Its inhibition in vivo at 50 mg/kg is < 20%.

COc1ccc(C(=O)Nc2nn(C)c3c(=O)n(C4OC(CO)C(O)C4O)nnc23)cc1 (centres unmarked) [Example 29, N-(3-(3,4-dihydroxy-5-(hydroxymethyl)tetrahydrofuran-2-yl)-5-methyl-4-oxo-4,5-dihydro-3H-pyrazolo[4,3-d][1,2,3]triazin-7-yl)-4-methoxybenzamide] was tested. Which inhibition in vivo at 15 mg/kg [2] did it give?
The inhibition in vivo at 15 mg/kg was < 20%.

With NC(=O)n1nc(N2CCCCC2)c2nnn(C3OC(CO)C(O)C3O)c(=O)c21 (centres unmarked) [Example 59, 3-(3,4-dihydroxy-5-(hydroxymethyl)tetrahydrofuran-2-yl)-4-oxo-7-(piperidin-1-yl)-3H-pyrazolo[4,3-d][1,2,3]triazine-5(4H)-carboxamide] as the compound, how does the inhibition in vivo at 50 mg/kg [2] read?
The inhibition in vivo at 50 mg/kg was < 20%.

CN(C)CCC(=O)Nc1nn(C(N)=S)c2c(=O)n(C3OC(CO)C(O)C3O)nnc12 (centres unmarked) [Example 76, N-(5-carbamothioyl-3-(3,4-dihydroxy-5-(hydroxymethyl)tetrahydrofuran-2-yl)-4-oxo-4,5-dihydro-3H-pyrazolo[4,3-d][1,2,3]triazin-7-yl)-3-(dimethylamino) propanamide] was tested. Which “in-vivo anti-tumor efficacy, statistical significance (in words)” value did it give?
The value was “statistically significant”.

And the “Inhibition rate (%) S180 sarcoma” value (mice, ip, 400 mg/kg)?
Its value is “++ (++ represent of Inhibition rate % <40)”.

Which inhibition in vivo at 200 mg/kg [1] does the source give for O=c1c2c(nnn1C1OC(CO)C(O)C1O)c(N1CCCCC1)nn2O (centres unmarked) [Example 18, 3-(3,4-dihydroxy-5-(hydroxymethyl)tetrahydrofuran-2-yl)-5-hydroxy-7-(piperidin-1-yl)-3H-pyrazolo [4,3-d][1,2,3]triazin-4(5H)-one] here?
Its inhibition in vivo at 200 mg/kg is < 20%.

How did the inhibition in vivo at 15 mg/kg [2] turn out when NC(=O)Cn1nc(N)c2nnn(C3OC(CO)C(O)C3O)c(=O)c21 (centres unmarked) [Example 50, 2-(7-amino-3-(3,4-dihydroxy-5-(hydroxymethyl)tetrahydrofuran-2-yl)-4-oxo-3H-pyrazolo[4,3-d][1,2,3]triazin-5(4H)-yl)acetamide] was run?
Its inhibition in vivo at 15 mg/kg is < 40%.

And the “in-vivo anti-tumor efficacy, statistical significance (in words)” value?
The value was “statistically significant”.

How did the inhibition in vivo at 100 mg/kg [1] turn out when N#Cc1nn(C(N)=O)c2c(=O)n(C3OC(CO)C(O)C3O)nnc12 (centres unmarked) [Example 58, 7-cyano-3-(3,4-dihydroxy-5-(hydroxymethyl)tetrahydrofuran-2-yl)-4-oxo-3H-pyrazolo[4,3-d][1,2,3]triazine-5(4H)-carboxamide] was run?
Its inhibition in vivo at 100 mg/kg is < 40%.

What about the “in-vivo anti-tumor efficacy, statistical significance (in words)” value of the same compound?
The value was “statistically significant”.

With CCOC(=O)c1nn(CC(N)=O)c2c(=O)n(C3OC(CO)C(O)C3O)nnc12 (centres unmarked) [Example 48, ethyl 5-(2-amino-2-oxoethyl)-3-(3,4-dihydroxy-5-(hydroxymethyl)tetrahydrofuran-2-yl)-4-oxo-4,5-dihydro-3H-pyrazolo[4,3-d][1,2,3]triazine-7-carboxylate] as the compound, how does the inhibition in vivo at 50 mg/kg [2] read?
Its inhibition in vivo at 50 mg/kg is < 40%.

And the “in-vivo anti-tumor efficacy, statistical significance (in words)” value?
Its value is “statistically significant”.

How did the inhibition in vivo at 12.5 mg/kg [2] turn out when COc1ccc(C(=O)Nc2nn(C(N)=O)c3c(=O)n(C4OC(CO)C(O)C4O)nnc23)cc1 (centres unmarked) [Example 61, 3-(3,4-dihydroxy-5-(hydroxymethyl)tetrahydrofuran-2-yl)-7-(4-methoxybenzamido)-4-oxo-3H-pyrazolo[4,3-d][1,2,3]triazine-5(4H)-carboxamide] was run?
Its inhibition in vivo at 12.5 mg/kg is < 20%.

Which inhibition in vivo at 100 mg/kg [1] does the source give for CCCc1nn(C(N)=O)c2c(=O)n(C3OC(CO)C(O)C3O)nnc12 (centres unmarked) [Example 55, 3-(3,4-dihydroxy-5-(hydroxymethyl)tetrahydrofuran-2-yl)-4-oxo-7-propyl-3H-pyrazolo [4,3-d][1,2,3]triazine-5(4H)-carboxamide] here?
Its inhibition in vivo at 100 mg/kg is < 40%.

And the “in-vivo anti-tumor efficacy, statistical significance (in words)” value?
Its value is “statistically significant”.

Which inhibition in vivo at 50 mg/kg [2] does the source give for CCCc1nn(C2CC2)c2c(=O)n(C3OC(CO)C(O)C3O)nnc12 (centres unmarked) [Example 40, 5-cyclopropyl-3-(3,4-dihydroxy-5-(hydroxymethyl)tetrahydrofuran-2-yl)-7-propyl-3H-pyrazolo[4,3-d][1,2,3]triazin-4(5H)-one] here?
Its inhibition in vivo at 50 mg/kg is < 20%.

How did the inhibition in vivo at 15 mg/kg [2] turn out when NC(=O)n1nc([N+](=O)[O-])c2nnn(C3OC(CO)C(O)C3O)c(=O)c21 (centres unmarked) [Example 60, 3-(3,4-dihydroxy-5-(hydroxymethyl)tetrahydrofuran-2-yl)-7-nitro-4-oxo-3H-pyrazolo[4,3-d][1,2,3]triazine-5(4H)-carboxamide] was run?
The inhibition in vivo at 15 mg/kg was < 40%.

What about the “in-vivo anti-tumor efficacy, statistical significance (in words)” value of the same compound?
The value was “statistically significant”.

Which inhibition in vivo at 300 mg/kg (Mus musculus, S-180, mice, ip, 300 mg/kg, read-out: Inhibition rate (%) S180 sarcoma) does the source give for CCCn1nnc2nnn(C3OC(CO)C(O)C3O)c(=O)c21 (centres unmarked) [Example 147, 6-(3,4-dihydroxy-5-(hydroxymethyl)tetrahydrofuran-2-yl)-1-propyl-1H-[1,2,3]triazolo[4,5-d][1,2,3]triazin-7(6H)-one] here?
The inhibition in vivo at 300 mg/kg was < 20%.

For CCCc1nn(C(=N)N)c2c(=O)n(C3OC(CO)C(O)C3O)nnc12 (centres unmarked) [Example 68, 3-(3,4-dihydroxy-5-(hydroxymethyl)tetrahydrofuran-2-yl)-4-oxo-7-propyl-3H-pyrazolo [4,3-d][1,2,3]triazine-5(4H)-carboximidamide], which inhibition in vivo at 20 mg/kg (Mus musculus, S-180, mice, iv, 20 mg/kg, read-out: Inhibition rate (%) S180 sarcoma) is on record?
Its inhibition in vivo at 20 mg/kg is < 40%.

What about the “in-vivo anti-tumor efficacy, statistical significance (in words)” value of the same compound?
The value was “statistically significant”.

Which inhibition in vivo at 15 mg/kg [2] does the source give for Cn1nc(N2CCCCC2)c2nnn(C3OC(CO)C(O)C3O)c(=O)c21 (centres unmarked) [Example 27, 3-(3,4-dihydroxy-5-(hydroxymethyl)tetrahydrofuran-2-yl)-5-methyl-7-(piperidin-1-yl)-3H-pyrazolo[4,3-d][1,2,3]triazin-4(5H)-one] here?
The inhibition in vivo at 15 mg/kg was < 20%.

How did the inhibition in vivo at 100 mg/kg [1] turn out when CN(C)CCC(=O)Nc1nn(CC(N)=O)c2c(=O)n(COC(CO)CO)nnc12 [Example 129, N-(5-(2-amino-2-oxoethyl)-3-(((1,3-dihydroxypropan-2-yl)oxy)methyl)-4-oxo-4,5-dihydro-3H-pyrazolo[4,3-d][1,2,3]triazin-7-yl)-3-(dimethylamino) propanamide] was run?
Its inhibition in vivo at 100 mg/kg is < 20%.
